Measurements reported in patent publication US6486144B1, “Method of treatment of liver tumors and pharmaceutical compositions for use therein” (priority 1997, dated 2002).
Values joined by “and” are separate entries in the source; they are usually repeats but may differ in a detail not shown here. Identical values can stand only once. “Also recorded” adds a separate entry of the source.

Key:
[1] = tested on: SK-Hep; assay: effect of EB1089 on hepatoma cell line SK-Hep; type: cell-based; set-up: unit not given here; details: day 5, 5% charcoal treated media, repeated experiments
From the text: (§1) (All experiments carried out in 5% charcoal treated media. All day 5. Successive lines of results for a particular cell line are the results for repeated experiment)

[2] = tested on: human colon cancer cells LoVo; assay: in vitro growth of human colon cancer cells LoVo; type: cell-based; details: treated for 10 days
Description: (§2) Results are % of control ±SEM
(§3) LoVo cells were treated for 10 days, while HepG2 cells were treated for 5 days, with D3 or EB1089.

[3] = tested on: NovoKoff; assay: effect of EB1089 on hepatoma cell line NovoKoff; type: cell-based; set-up: unit not given here; details: day 5, 5% charcoal treated media, repeated experiments
From the text: as §1

[4] = tested on: PCL; assay: effect of EB1089 on hepatoma cell line PCL; type: cell-based; set-up: unit not given here; details: day 5, 5% charcoal treated media, repeated experiments
From the text: as §1

[5] = tested on: HTC; assay: effect of EB1089 on hepatoma cell line HTC; type: cell-based; set-up: unit not given here; details: day 5, 5% charcoal treated media, repeated experiments
From the text: as §1

[6] = tested on: Hep 1-6; assay: effect of EB1089 on hepatoma cell line Hep 1-6; type: cell-based; set-up: unit not given here; details: day 5, 5% charcoal treated media, repeated experiments
From the text: as §1

[7] = tested on: Morris; assay: effect of EB1089 on hepatoma cell line Morris; type: cell-based; set-up: unit not given here; details: day 5, 5% charcoal treated media, repeated experiments
From the text: as §1

[8] = tested on: human hepatoma cell line, Hep G2; assay: in vitro growth of human hepatoma cell line Hep G2 (thymidine uptake); type: cell-based; details: for % of control ±SEM: treated for 5 days
Description: as §2, §3

[9] = tested on: breast cancer; details: topical, cited from earlier work
[10] = tested on: liver cancers (hepatoma or colorectal cancer metastases); assay: Phase 1 trial of hepatic artery infusion: tumour marker (CEA or AFP) response; type: in vivo, human; details: for patients with at least a limited response (fall in the rate of rise of tumour marker): hepatic artery infusion
From the text: 2. To investigate the effects of such an infusion upon liver cancers by monitoring of tumour marker levels and their rate of rise. […] Regular assay of LFTs, UECs, and calcium and phosphate levels, together with AFP or CEA levels. CEA or AFP levels—looking for evidence of response of the tumours to treatment

[11] = type: physicochemical
Description: To illustrate the solubility of vitamin D compound in lipiodol radiolabelled vitamin D3 was dissolved in lipiodol at various amounts and the compared to the solubility of radiolabelled vitamin D3.

[12] = tested on: human hepatoma; details: cited from earlier work
[13] = 2 mcg/day administered orally; cited from earlier work
[14] = Phase 1 trial of hepatic artery infusion: safety, serum calcium; type: in vivo, human
From the text: Regular assay of LFTs, UECs, and calcium and phosphate levels, together with AFP or CEA levels.
Patients 3, 5 and 6 were initially given 2 mcg/day, and then four weeks of 5 mcg/week.
Patient 4 was hypercalcaemic due to a paraneoplastic phenomena prior to treatment, and was therefore given lower dosages.
Patient 7 was commenced on the same dosage regimen as patients 3, 5 and 6 but was withdrawn from the trial prior to starting 10 mcg/day due to progression of their disease.
Calcium levels—looking for the development of hypercalcaemia
UECs and LFTs—looking for unexpected effects upon hepatic and renal function.

[15] = pig model, intravenous versus hepatic arterial infusion, serum calcium; type: in vivo, Female Landrace pigs; details: for calcium levels: pig
From the text: Female Landrace pigs (minimal disease) of weight 15-50 kg.
This infusion was delivered for a one or two week period, after which the animal was not treated for 4 weeks to allow any induced hepatic enzymes to diminish. The animal was then “crossed over” those whose first infusion was via the hepatic artery had their pump connected to an intravenous catheter and vice versa.
Blood was taken regularly and assayed foe calcium levels, LFTs and UECs.

Compound: C=C1/C(=C\C=C2/CCC[C@]3(C)[C@@H]([C@H](C)/C=C/C=C/C(O)(CC)CC)CC[C@@H]23)C[C@@H](O)C[C@@H]1O [EB1089, 1 α.25 (OH)2 22.24 diene 24.26.27 trihomo D3]
- effect on hepatoma cell line ([1]; 10^8 M): 63.1 ± 16.2 and 71.3 ± 11.8 and 83.1 ± 4.2 and 95.6 ± 12.2
- effect on hepatoma cell line ([1]; 10^9 M): 52.1 ± 8.8 and 61.6 ± 12.2 and 88.4 ± 4.1 and 103.1 ± 12.4
- effect on hepatoma cell line ([1]; 10^11 M): 82 ± 9.2 and 78.8 ± 11.5 and 118.3 ± 26.4 and 66.9 ± 36.9
- effect on hepatoma cell line ([1]; 10^-10 M): 52.1 ± 8.6 and 61.1 ± 16.6 and 91.0 ± 4.5 and 103.8 ± 11.7
- % of control ±SEM ([2]; 10^−7 M): 40.5 ± 10.7 % of control
- % of control ±SEM ([2]; 10^−8 M): 51.0 ± 10.3 % of control
- % of control ±SEM ([2]; 10^−9 M): 73.3 ± 11.7 % of control
- % of control ±SEM ([2]; 10^−10 M): 55.3 ± 13.7 % of control
- % of control ±SEM ([2]; 10^−11 M): 64.7 ± 12.7 % of control
- effect on hepatoma cell line ([3]; 10^7 M): 91.5 ± 14.5 and 84.6 ± 17.0
- effect on hepatoma cell line ([3]; 10^8 M): 106.0 ± 18.1 and 79.0 ± 18.4
- effect on hepatoma cell line ([3]; 10^9 M): 103.7 ± 13.8 and 95.4 ± 18.2
- effect on hepatoma cell line ([3]; 10^11 M): 131.0 ± 15.9 and 92.6 ± 17.6
- effect on hepatoma cell line ([3]; 10^-10 M): 116.3 ± 22.1 and 94.0 ± 21.4
- effect on hepatoma cell line ([4]; 10^7 M): 98.5 ± 4.5 and 106.0 ± 9.1
- effect on hepatoma cell line ([4]; 10^8 M): 101.6 ± 11.5 and 105.2 ± 4.9
- effect on hepatoma cell line ([4]; 10^9 M): 98.3 ± 6.5 and 95.1 ± 3.3
- effect on hepatoma cell line ([4]; 10^10 M): 92.5 ± 6.6 and 100.1 ± 2.1
- effect on hepatoma cell line ([4]; 10^11 M): 102.5 ± 10.0 and 95.9 ± 2.9
- effect on hepatoma cell line ([5]; 10^7 M): 95.3 ± 17.7 and 57.9 ± 7.2
- effect on hepatoma cell line ([5]; 10^8 M): 86.9 ± 15.0 and 63.9 ± 12.5
- effect on hepatoma cell line ([5]; 10^9 M): 100.4 ± 15.4 and 97.4 ± 13.8
- effect on hepatoma cell line ([5]; 10^11 M): 98.8 ± 15.5 and 95.9 ± 13.0
- effect on hepatoma cell line ([5]; 10^-10 M): 113.0 ± 22.1 and 107.8 ± 12.7
- effect on hepatoma cell line ([6]; Hep 1-6, 10^8 M): 63.9 ± 7.0 and 113.4 ± 5.6
- effect on hepatoma cell line ([6]; Hep 1-6, 10^9 M): 78.1 ± 11.4 and 106.7 ± 5.4
- effect on hepatoma cell line ([6]; Hep 1-6, 10^11 M): 103.4 ± 9.2 and 98.1 ± 4.3
- effect on hepatoma cell line ([6]; Hep 1-6, 10^-10 M): 110.8 ± 13.8 and 103.5 ± 4.5
- effect on hepatoma cell line ([7]; 10^7 M): 136.0 ± 12.5 and 80.1 ± 5.2
- effect on hepatoma cell line ([7]; 10^8 M): 134.0 ± 13.3 and 83.3 ± 4.7
- effect on hepatoma cell line ([7]; 10^9 M): 117.8 ± 11.7 and 79.1 ± 4.9
- effect on hepatoma cell line ([7]; 10^10 M): 118.0 ± 11.9 and 88.3 ± 3.9
- effect on hepatoma cell line ([7]; 10^-11 M): 118.0 ± 14.3 and 90.8 ± 5.9
- % of control ±SEM ([8]; HepG2, 10^−7 M): 11.2 ± 2.7 % of control
- % of control ±SEM ([8]; HepG2, 10^−8 M): 13.1 ± 2.8 % of control
- % of control ±SEM ([8]; HepG2, 10^−9 M): 13.2 ± 2.7 % of control
- % of control ±SEM ([8]; HepG2, 10^−10 M): 49.1 ± 2.9 % of control
- % of control ±SEM ([8]; HepG2, 10^−11 M): 41.7 ± 3.6 % of control

Compound: C=C1/C(=C\C=C2/CCC[C@]3(C)[C@@H]([C@H](C)/C=C/[C@@H](O)C4CC4)CC[C@@H]23)C[C@@H](O)C[C@@H]1O [Calcipotriol, calcipotriol]
- patients with a minimal response ([9]; of the 19 patients treated): 1 patients
- patients with a significant response ([9]; of the 19 patients treated): 3 patients
- patients who became hypercalcaemic during treatment [9]: 2 of the 19 patients

Compound: C=C1CC[C@H](O)C/C1=C/C=C1\CCC[C@]2(C)[C@@H]([C@H](C)CCCC(C)C)CC[C@@H]12 [vitamin D3, cholecalciferol]
- patients with at least a limited response (fall in the rate of rise of tumour marker) [10]: 4 of 7 patients
- solubility in lipiodol compared with aqueous medium [11]: substantially more soluble in lipiodol

Compound: CC/C(=C(\c1ccccc1)c1ccc(OCCN(C)C)cc1)c1ccccc1 [Tamoxifen]
- survival [12]: significantly, but modestly, improve survival

Compound: C=C1/C(=C\C=C2/CCC[C@]3(C)[C@@H]([C@H](C)CCCC(C)(C)O)CC[C@@H]23)C[C@@H](O)C[C@@H]1O [1.25(OH)2D3, 1.25-dihydroxycholecalciferol]
- hypercalcaemia, share of patients [13]: 50 % of patients
- % of control ±SEM ([2]; 10^−7 M): 34.2 ± 3.8 % of control
- % of control ±SEM ([2]; 10^−8 M): 53.1 ± 5.0 % of control
- % of control ±SEM ([2]; 10^−9 M): 74.2 ± 6.8 % of control
- % of control ±SEM ([2]; 10^−10 M): 96.5 ± 12.9 % of control
- % of control ±SEM ([2]; 10^−11 M): 127.4 ± 7.1 % of control
- hypercalcaemia developed ([14]; hepatic arterial infusion, 15 mcg/day): two out of three patients
- derangement of hepatic or renal function ([14]; hepatic artery infusion, seven patients): Nor did any patient experience any derangement of hepatic or renal function
- unexpected adverse reaction or side effect to the infusion ([14]; hepatic artery infusion, seven patients, listed as 1.25(OH)D3): No patient suffered any unexpected adverse reaction or side effect; also recorded: safe and without unexpected side effects
- dose administered without any observable systemic toxicity ([14]; intraarterially to the liver, patients): at least 10 mcg/day
- calcium level ([14]; patient with pre existing hypercalcaemia (FIG. 3)): did not rise with treatment
- hypercalcaemia during treatment ([14]; patients 1 and 2, lower doses): Neither patients 1 nor 2 became hypercalcaemic
- patients with at least a limited response (fall in the rate of rise of tumour marker) [10]: 4 of 7 patients
- tumour marker level ([10]; patient 1): dramatically increased at the onset of treatment but this was followed by an equally dramatic fall in the level
- tumour marker level ([10]; patient 2): levelling off of the rate of rise with time
- tumour marker level ([10]; patient 3): dramatic fall in marker level initially, but later this resumed it rise
- rate of rise of CEA levels ([10]; patient 7): appears to have slowed somewhat
- CEA levels rate of rise ([10]; patients 5 and 6): did not appear to have any response to treatment
- amount readily dissolved ([11]; in 1 ml lipiodol): ≥ 2 mg
- calcium levels ([15]; hepatic arterial infusion, similar dosage, listed as 1.25(OH)D3): does not affect calcium levels; also recorded: does not produce the hypercalcaemia
- calcium levels ([15]; intravenous infusion): results in hypercalcaemia
- LFTs and UECs ([15]; pigs, either route): normal in all animals throughout
- unexpected reaction ([15]; pigs, either route): No pig suffered any unexpected reaction
- inhibition of growth ([8]; Hep G2, 10^−11M): considerably less effective
- inhibition of growth ([8]; Hep G2, reduction in thymidine uptake, dose dependent (FIG. 1)): 95%
- % of control ±SEM ([8]; HepG2, 10^−7 M): 7.1 ± 6.3 % of control
- % of control ±SEM ([8]; HepG2, 10^−8 M): 8.6 ± 6.3 % of control
- % of control ±SEM ([8]; HepG2, 10^−9 M): 13.8 ± 6.4 % of control
- % of control ±SEM ([8]; HepG2, 10^−10 M): 56.6 ± 6.7 % of control
- % of control ±SEM ([8]; HepG2, 10^−11 M): 105.6 ± 6.6 % of control
